Laboratory results from ChEMBL document CHEMBL1201862, “PubChem BioAssay data set” (2004).
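In this assay, cells in 96-well plates receive the compound at five concentrations for 48 hours. Endpoints are linearly interpolated between the surrounding concentrations. Abbreviation: GI50, concentration required for 50% inhibition of growth.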 Active and inactive are the calls of the source. No stated cut-off is given here; in the data, active = GI50 up to about 1.1 µM and inactive = higher.

What was measured:
Assay in all cases: NCI-60 cell line screen, 48 h
NCI-H23 = system: NCI-H23
SK-MEL-5 = system: SK-MEL-5
MDA-N = system: MDA-N
ACHN = system: ACHN
UO-31 = system: UO-31
NCI-H226 = system: NCI-H226
Malme-3M = system: Malme-3M
SN12C = system: SN12C
SK-OV-3 = system: SK-OV-3
U-251 = system: U-251
HCC 2998 = system: HCC 2998
OVCAR-4 = system: OVCAR-4
SNB-75 = system: SNB-75
SF-295 = system: SF-295
HOP-62 = system: HOP-62
786-0 = system: 786-0
CCRF-CEM = system: CCRF-CEM
LOX IMVI = system: LOX IMVI
UACC-62 = system: UACC-62

Measured: GI50

C/C=C(/CBr)CCC(Br)C(C)(C)Cl.C/C=C(\CBr)CCC(Br)C(C)(C)Cl (configuration not stated)
inactive: NCI-H23 > 10 µM | SK-MEL-5 > 10 µM | MDA-N > 10 µM | ACHN > 10 µM | UO-31 > 10 µM | NCI-H226 > 10 µM | Malme-3M > 10 µM | SN12C > 10 µM | SK-OV-3 > 10 µM | U-251 > 10 µM | HCC 2998 > 10 µM | OVCAR-4 > 10 µM | SNB-75 > 10 µM | SF-295 > 10 µM | HOP-62 > 10 µM | 786-0 > 10 µM | CCRF-CEM > 10 µM

CSc1ccc(C(=O)C(=O)c2ccc(SC)s2)s1
inactive: NCI-H23 > 10 µM | SK-MEL-5 > 10 µM | LOX IMVI > 10 µM | UACC-62 > 10 µM | MDA-N 4.6 µM | ACHN > 10 µM | UO-31 > 10 µM | NCI-H226 > 10 µM | SN12C > 10 µM | SK-OV-3 > 10 µM | U-251 > 10 µM | HCC 2998 > 10 µM | OVCAR-4 7.24 µM | SNB-75 > 10 µM | SF-295 > 10 µM | HOP-62 3.93 µM | 786-0 6.64 µM | CCRF-CEM 3.15 µM

COC(=O)c1c(O)ccc2c1c1c(n2CCc2ccccc2)C(=O)c2ccccc2C1=O
inactive: NCI-H23 11.6 µM | SK-MEL-5 12.5 µM | LOX IMVI 15.7 µM | MDA-N 10.2 µM | ACHN 11.9 µM | UO-31 10.8 µM | NCI-H226 14.6 µM | Malme-3M 12.1 µM | SN12C 12 µM | SK-OV-3 18.3 µM | U-251 12.7 µM | HCC 2998 2.48 µM | OVCAR-4 6.79 µM | SF-295 19.1 µM | HOP-62 21.4 µM | 786-0 16.7 µM | CCRF-CEM 12.8 µM

Nc1ccccc1SC(C[N+](=O)[O-])c1ccc2c(c1)OCO2 (configuration not stated)
inactive: NCI-H23 3.08 µM | SK-MEL-5 3.26 µM | LOX IMVI 1.75 µM | UACC-62 13.2 µM | MDA-N 1.75 µM | ACHN 6.46 µM | UO-31 1.87 µM | NCI-H226 11.2 µM | Malme-3M 15.7 µM | SN12C 3.37 µM | SK-OV-3 4.54 µM | U-251 2.64 µM | HCC 2998 1.78 µM | OVCAR-4 11.6 µM | SNB-75 2.34 µM | SF-295 4.89 µM | HOP-62 2.12 µM | 786-0 1.66 µM

COc1ccc(C[n+]2cccc(O)c2)cc1
inactive: NCI-H23 > 100 µM | SK-MEL-5 > 100 µM | UACC-62 > 100 µM | MDA-N > 100 µM | ACHN > 100 µM | UO-31 > 100 µM | NCI-H226 > 100 µM | Malme-3M > 100 µM | SN12C > 100 µM | SK-OV-3 > 100 µM | U-251 > 100 µM | HCC 2998 > 100 µM | SF-295 > 100 µM | HOP-62 > 100 µM | 786-0 > 100 µM | CCRF-CEM > 100 µM

Cl/C(=N\c1cccc2ccccc12)N(c1ccccc1)c1ccccc1
inactive: NCI-H23 > 100 µM | LOX IMVI > 100 µM | UACC-62 75.2 µM | MDA-N 52 µM | ACHN 66.7 µM | UO-31 > 100 µM | Malme-3M 39 µM | SN12C > 100 µM | SK-OV-3 > 100 µM | U-251 57.7 µM | HCC 2998 19.7 µM | OVCAR-4 > 100 µM | SNB-75 > 100 µM | SF-295 67.6 µM | HOP-62 > 100 µM | 786-0 > 100 µM

C=CCc1ccccc1C1CC2(C(=O)OC)OC1C(C(=O)OC)=C2C(=O)OC (configuration not stated)
inactive: NCI-H23 > 10 µM | SK-MEL-5 > 10 µM | LOX IMVI > 10 µM | UACC-62 > 10 µM | MDA-N > 10 µM | ACHN > 10 µM | UO-31 > 10 µM | NCI-H226 > 10 µM | Malme-3M > 10 µM | SN12C > 10 µM | SK-OV-3 > 10 µM | U-251 > 10 µM | HCC 2998 > 10 µM | OVCAR-4 > 10 µM | SF-295 > 10 µM | HOP-62 > 10 µM | 786-0 > 10 µM | CCRF-CEM > 10 µM

Clc1ccc(OCc2nnc(CCCCCCCCc3nnc(COc4ccc(Cl)cc4Cl)o3)o2)c(Cl)c1
inactive: NCI-H23 > 100 µM | SK-MEL-5 > 100 µM | UACC-62 > 100 µM | MDA-N > 100 µM | ACHN > 100 µM | UO-31 44.1 µM | NCI-H226 > 100 µM | Malme-3M 9.44 µM | SN12C > 100 µM | SK-OV-3 > 100 µM | U-251 > 100 µM | HCC 2998 > 100 µM | OVCAR-4 92.9 µM | SNB-75 > 100 µM | SF-295 85.1 µM | 786-0 47.1 µM

CC(=O)c1c(C)n(C)c2c1nnc1ccccc12
inactive: NCI-H23 37.5 µM | SK-MEL-5 32 µM | LOX IMVI 43 µM | UACC-62 23.1 µM | MDA-N 67.9 µM | ACHN 34.4 µM | UO-31 3.15 µM | NCI-H226 31.6 µM | Malme-3M 39.5 µM | SN12C 40.3 µM | SK-OV-3 32.8 µM | U-251 49.4 µM | HCC 2998 85.5 µM | OVCAR-4 > 100 µM | SF-295 40.2 µM | HOP-62 55.2 µM | 786-0 36 µM | CCRF-CEM 54.2 µM

COC(=O)C1Cc2c(OC)ccc(OC)c2CC(C(=O)OC)C1=O (configuration not stated)
inactive: NCI-H23 32.4 µM | SK-MEL-5 > 100 µM | UACC-62 > 100 µM | MDA-N > 100 µM | ACHN 63.5 µM | UO-31 56 µM | NCI-H226 > 100 µM | Malme-3M > 100 µM | SN12C > 100 µM | SK-OV-3 > 100 µM | U-251 > 100 µM | HCC 2998 > 100 µM | OVCAR-4 > 100 µM | SNB-75 > 100 µM | SF-295 > 100 µM | HOP-62 > 100 µM | 786-0 > 100 µM | CCRF-CEM > 100 µM

C=CC(=O)N1C/C(=C\c2ccc(N(C)C)cc2)C(=O)/C(=C/c2ccc(N(C)C)cc2)C1
inactive: NCI-H23 > 100 µM | SK-MEL-5 > 100 µM | LOX IMVI 11.2 µM | UACC-62 44.3 µM | MDA-N 17.8 µM | ACHN > 100 µM | UO-31 > 100 µM | NCI-H226 > 100 µM | Malme-3M > 100 µM | SN12C > 100 µM | U-251 > 100 µM | HCC 2998 > 100 µM | OVCAR-4 > 100 µM | SNB-75 > 100 µM | SF-295 18.5 µM | HOP-62 > 100 µM | 786-0 42.1 µM

CNC(=O)c1nn[nH]c1O
inactive: NCI-H23 > 100 µM | SK-MEL-5 > 100 µM | LOX IMVI > 100 µM | UACC-62 > 100 µM | MDA-N > 100 µM | ACHN > 100 µM | UO-31 > 100 µM | NCI-H226 > 100 µM | Malme-3M > 100 µM | SN12C > 100 µM | SK-OV-3 > 100 µM | U-251 > 100 µM | HCC 2998 > 100 µM | SNB-75 74.1 µM | SF-295 > 100 µM | HOP-62 > 100 µM | 786-0 > 100 µM | CCRF-CEM > 100 µM

CCc1nc(N)nc(N)c1-c1ccc(N2CCOCC2)c(N=[N+]=[N-])c1
inactive: NCI-H23 37.2 µM | SK-MEL-5 37.2 µM | LOX IMVI 38.7 µM | UACC-62 47 µM | MDA-N 57.1 µM | ACHN 46 µM | UO-31 > 100 µM | NCI-H226 98.2 µM | SN12C > 80.5 µM | SK-OV-3 > 100 µM | U-251 67 µM | HCC 2998 47.9 µM | OVCAR-4 70.6 µM | SNB-75 > 92 µM | SF-295 63 µM | HOP-62 > 100 µM | 786-0 57.3 µM | CCRF-CEM 53.8 µM

CCCC(=O)OC(OC(=O)CCC)c1ccc([N+](=O)[O-])o1
inactive: NCI-H23 22.1 µM | SK-MEL-5 32.4 µM | LOX IMVI 21.7 µM | UACC-62 20.9 µM | MDA-N 20.1 µM | ACHN 20.5 µM | UO-31 21.1 µM | Malme-3M 19.2 µM | SN12C 17.3 µM | SK-OV-3 > 100 µM | U-251 34.3 µM | HCC 2998 15.9 µM | SNB-75 > 100 µM | SF-295 > 100 µM | HOP-62 62.8 µM | 786-0 18.3 µM | CCRF-CEM 28.2 µM

O=[N+]([O-])C(/C=C(\Cl)[N+](=O)[O-])=C(Nc1ccccc1)Nc1ccccc1
inactive: NCI-H23 7.96 µM | SK-MEL-5 13.3 µM | LOX IMVI 16 µM | UACC-62 7.45 µM | MDA-N 5.58 µM | ACHN 13.2 µM | UO-31 12.1 µM | Malme-3M 8.67 µM | SN12C 15.5 µM | SK-OV-3 20.1 µM | U-251 14.3 µM | HCC 2998 21.4 µM | OVCAR-4 6.76 µM | SNB-75 1.26 µM | SF-295 17.3 µM | 786-0 3.7 µM | CCRF-CEM 1.44 µM

COc1ccc(C(CC(=O)C(C)(C)CN2CCCCC2)SCCS(=O)(=O)O)cc1 (configuration not stated)
inactive: NCI-H23 25.1 µM | SK-MEL-5 20.9 µM | UACC-62 37.3 µM | MDA-N 29.6 µM | ACHN 33.2 µM | UO-31 37.4 µM | NCI-H226 21.9 µM | Malme-3M 20.9 µM | SN12C 54.2 µM | SK-OV-3 60.7 µM | U-251 62.1 µM | HCC 2998 67.3 µM | OVCAR-4 34 µM | SNB-75 22.3 µM | SF-295 13.9 µM | HOP-62 77.8 µM | 786-0 18.3 µM | CCRF-CEM 17.1 µM
